This is an account of results in article PMC9841589, “Identification of 2-Aminoacyl-1,3,4-thiadiazoles as Prostaglandin E2 and Leukotriene Biosynthesis Inhibitors” (ACS Medicinal Chemistry Letters, 2022).

The target in assay [1] is T1, COX-2 (Homo sapiens, UniProt P35354).
T1 sequence (P35354 18-604): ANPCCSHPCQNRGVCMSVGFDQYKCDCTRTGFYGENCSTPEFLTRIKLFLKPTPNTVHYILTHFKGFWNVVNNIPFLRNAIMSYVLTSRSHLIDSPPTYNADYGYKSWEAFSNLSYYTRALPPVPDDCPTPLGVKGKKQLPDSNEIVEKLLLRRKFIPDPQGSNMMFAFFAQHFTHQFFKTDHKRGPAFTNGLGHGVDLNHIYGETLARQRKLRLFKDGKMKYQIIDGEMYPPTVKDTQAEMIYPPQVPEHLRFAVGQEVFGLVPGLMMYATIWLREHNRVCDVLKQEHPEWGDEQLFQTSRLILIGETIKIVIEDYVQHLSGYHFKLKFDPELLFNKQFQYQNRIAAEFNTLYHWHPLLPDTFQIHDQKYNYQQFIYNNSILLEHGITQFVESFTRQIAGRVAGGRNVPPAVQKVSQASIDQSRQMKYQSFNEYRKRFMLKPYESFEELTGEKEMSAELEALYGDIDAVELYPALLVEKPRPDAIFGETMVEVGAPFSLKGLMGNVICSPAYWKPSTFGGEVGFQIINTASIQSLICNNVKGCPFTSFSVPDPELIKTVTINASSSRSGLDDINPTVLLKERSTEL
Nature of the assay: Cell-free COXs activity assay, COX-2. The assay is classed as biochemical. The settings on record: percentage of uninhibited control (100%), n = 3, n.i.: no inhibitory activity observed, read-out: COX-2 residual activity (%). As to the method:
Cell-free COXs activity assay
Isolated COX-1 (ovine) and COX-2 (human) were used for the evaluation of the activity of test compounds 3, 6, 7, and 9 on cyclooxygenases. COXs were diluted using Tris buffer (100 mM, pH = […]
8) plus 5 mM glutathione, 100 µM EDTA and 5 µM hemoglobin) to a final concentration of 50 U/mL for COX-1 and 20 U/mL for COX-2, and pre-incubated with test compounds 3, 6, 7, and 9 (10 µM) or vehicle (0.1% DMSO) over 5 min at rt. After 1 min at 37 °C, reactions were started after addition of arachidonic acid to a final concentration of 5 µM for COX-1 and 2 µM for COX-2. After 5 min at 37 °C, 1 mL of ice-cold methanol was added for stopping the reactions on ice. Then, PGB 1 as internal standard and 530 µl PBS plus HCl were added, and solid-phase extraction was performed as reported before.4-6, 17-19 COXs product formation (12-HHT) was determined using RP-HPLC. 4-6, 17-19 Indomethacin (10 µM) and celecoxib (5 µM) were used as reference drugs.
Expression, purification and activity assay of human recombinant sEH
Human recombinant sEH was expressed in Sf9 cells and was infected using a baculovirus, provided by Dr. B. Hammock, University of California, Davis, CA. After 72 hours, cells were pelleted and sonicated (3 × 10 sec) at 4 °C in lysis buffer (50 mM NaHPO 4, pH = 8, 300 mM NaCl, 10% glycerol, 1 mM EDTA, 1 mM phenylmethanesulfonyl fluoride, 10 µg/mL of leupeptin, and 60 µg/mL of soybean trypsin inhibitor). Lysates were centrifuged over 60 min at 4 °C (100,000 × g), and supernatants were collected and submitted to a benzylthio-sepharose-affinity chromatography for sEH purification by elution with 4-fluorochalcone oxide in PBS plus 1 mM DTT and 1 mM EDTA.720 […]
DMSO) for 15 min at rt. 50 µM 3-phenyl-cyano(6-methoxy-2-naphthalenyl)methyl ester-2-oxiraneacetic acid (PHOME), a non-fluorescent compound, was added for starting the reaction.
PHOME is enzymatically converted into a fluorescent compound, 6-methoxy-naphtaldehyde, detectable by using a spectrofluorometer setting λ em = 465 nm, λ ex = 330 nm. After 60 min, ZnSO 4

For assay [2], the system named is PGE2 production in IL-1β-stimulated A549 cells. Nature of the assay: Inhibition of PGE2 production in IL-1β-stimulated A549 cells. The settings on record: A549, IL-1β 10 ng/mL, 5 and 10 μM, 24 h, ELISA. The assay is classed as cell-based, human. As to the method:
Figure 3 (A) A549 cells in conditioned medium (1% FBS and 10 ng/mL IL-1β) were incubated for 24 h with 5 and 10 μM of compound 3, 6, 7, and 9. PGE2 released into the medium was quantified using a specific ELISA. Control cells were stimulated with IL-1β, treated with vehicle (DMSO), and expressed as mean ± SEM (pg/mL), n = 2. (B) A549 cell line was used to perform a MTT assay. A549 were treated with 3, 6, 7, and 9 (test compounds, 10 μM), staurosporine (1 μM, positive control), or vehicle (0.1% DMSO) for 48 h. (C) Human monocytes were used to perform a MTT assay. Cells were treated with 3, 6, 7, and 9 (test compounds, 10 μM), Triton X-100 (1%, positive control), or vehicle (0.5% DMSO) for 24 h. Data are expressed as a percentage of control (100%), means, SEM, n = 3.
Carslbad, CA, USA), in 5% CO2 humid atmosphere. The cells were subcultured every 2 days and were tested for Mycoplasma using PCR analysis.Inhibition of PGE2 production in cells A549 cells were plated at 10.000 cells/well in DMEM with 10% FBS-medium in a 96-well plate; after overnight incubation, the cells were treated with 5 and 10 µM of 3, 6, 7, 9 compounds in DMEM 1%FBS and IL-1β (10 ng/ml) to upregulate PG synthase expression.
After 24 h, the amount of PGE2 released in the supernatant was evaluated by a commercially available enzyme immunoassay kit (Prostaglandin E2 EIA kit Monoclonal, Cayman Chemical), and at the same time was evaluated cell viability by MTT using (3-4,5-[…])-2,5-diphenyl tetrazolium bromide reagent (Sigma-Aldrich). Following the treatment, 20 µL of MTT (5 mg/mL in PBS) was added, and the cells were incubated for additional 3 h at 37°C. […]
The absorbance was measured at 570 nm with a Multiskan™ GO Microplate Spectrophotometer (Thermo Fisher Scientific, USA). […]
MTT (5 mg/mL) was added, and after 1 h (37 °C, 5% CO 2) the medium was replaced with DMSO (100 µL per well). Finally, formazan formation was detected by the measurement of absorbance at […]
Acute cytotoxicity of compounds 3, 6, 7, 9 was analyzed on human monocytes. […]
On the technique in general: An ELISA detects its analyte on a solid surface through an enzyme-linked reagent.

Turning to `O=C(Nc1nnc(-c2ccc(-c3cccc(O)c3)cc2)s1)c1ccccc1Br` [compound 3], in assay [1], the remaining activity at 10 µM came out at 65.4%.
Consider `Cc1cc(C(=O)Nc2nnc(-c3ccc(-c4ccccc4N)cc3)s2)cc(Cl)n1` [compound 6], for which the remaining activity at 10 µM in assay [1] amounted to 83.1%. In assay [2], the “PGE2 released into the medium” value is reported as “able to suppress the biosynthesis of PGE2 in a concentration-dependent manner”.
As to `Nc1ccccc1-c1ccc(-c2nnc(NC(=O)c3ccccc3Br)s2)cc1` [compound 7], the remaining activity at 10 µM in assay [1] is 194%. For the same compound, the “PGE2 released into the medium” value in assay [2] is reported as “able to suppress the biosynthesis of PGE2 in a concentration-dependent manner”.
`Nc1ccccc1-c1ccc(-c2nnc(NC(=O)c3c(Cl)ccnc3Cl)s2)cc1` [compound 9]: the remaining activity at 10 µM in assay [1] stood at 72.7%. The “PGE2 released into the medium” value in assay [2] was “able to suppress the biosynthesis of PGE2 in a concentration-dependent manner”.
